Experimental data published in patent US4831046A, “Tetrazole derivatives of 1,3-dioxane and thromboxane A2 antigonizing use thereof” (Imperial Chemical Industries PLC, priority 1985, dated 1989).

Assays:
rabbit aortal strip = rabbit aortal strip model (agonist TXA2 or U46619); format: cell-based; details: test (a), TXA2 antagonism
Experimental: (§1) As stated earlier, the compounds of formula I are antagonists of one or more of the actions of TXA2, for example certain of its actions on blood platelets, the vasculature and/or the lung.
(a) The rabbit aortal strip model devised by Piper and Vane (Nature, 1969, 223, 29-35) using as agonist a freshly prepared sample of TXA2, generated by addition of arachidonic acid (25 μg) to citrated, platelet rich rabbit plasma (250 μl) and allowing the mixture to aggregate fully over 90 seconds before use; alternatively the TXA2 mimetic agent known as U46619 (described by R L Jones et alia, in "Chemistry, Biochemistry and Pharmacological Activity of Prostanoids" edited by S M Roberts and F Scheinmann, at page 211, Pergamon Press, 1979) may be used as the agonist;

[1] = system: U46619 induced bronchoconstriction; assay: bronchoconstriction test, U46619 induced, Konzett-Rossler anaesthetised guinea-pig model; format: in vivo; details: test (c), 50 μg/kg p.o., 50% response
Excerpt: as §1
(c) a bronchoconstriction test involving measuring the inhibition by a test compound of the bronchoconstriction induced in the Konzett-Rossler, anaesthetised guinea-pig model (as modified by Collier and James, Brit. J. Pharmacol., 1967, 30, 283-307) by intravenous administration of the TXA2 mimetic agent, U46619 and involving:
(i) obtaining a cumulative dose-response curve to U46619 induced bronchoconstriction by intravenous administration of constant volumes of increasing concentrations of U46619 (0.2-4 μg/kg) in physiological saline solution and expressing bronchoconstriction as the maximum of that theoretically obtainable with no air flow to the test animal;
(ii) generating a cumulative dose-response curve to U46619 induced bronchoconstriction at 30 minute intervals for 3 hours after oral dosing of test compound; and
(iii) calculating a dose-ratio for the test compound (that is the ratio of concentration of U46619 required to cause 50% bronchoconstriction in the presence and absence of test compound) indicating the potency of TXA2 antagonism.

[2] = target: T1, human, citrated platelet-rich plasma (Homo sapiens, UniProt P21731); assay: blood platelet aggregation test (U46619, based on Born); format: cell-based; details: test (b), averaged over several concentrations
T1 construct: aggregating human, citrated platelet-rich plasma by addition of the TXA2 mimetic agent U46619; endogenous in cells; host or cells: human platelets in citrated platelet-rich plasma
T1 sequence (P21731 1-343): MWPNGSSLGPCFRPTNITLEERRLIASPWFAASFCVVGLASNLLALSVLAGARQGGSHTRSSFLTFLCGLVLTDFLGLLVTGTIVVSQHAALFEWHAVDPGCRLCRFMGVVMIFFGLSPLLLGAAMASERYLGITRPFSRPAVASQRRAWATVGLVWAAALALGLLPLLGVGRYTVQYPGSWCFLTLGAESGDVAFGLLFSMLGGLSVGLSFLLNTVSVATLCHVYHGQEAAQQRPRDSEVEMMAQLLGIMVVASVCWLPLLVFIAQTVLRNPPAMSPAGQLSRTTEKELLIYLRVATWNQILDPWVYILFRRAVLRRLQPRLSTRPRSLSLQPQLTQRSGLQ
Excerpt: as §1
(b) a blood platelet aggregation test based on that described by Born (Nature, 1962, 194, 927-929) and involving:
(i) aggregating human, citrated platelet-rich plasma by addition of the TXA2 mimetic agent U46619 so that a dose-response curve is generated;
(ii) generating a dose-response curve for U46619 stimulated platelet aggregation in the presence of increasing amounts of test compound (generally in the range, 10^-5 M to 10^-10 M); and
(iii) calculating a KB value indicating potency of TXA2 antagonism for the test compound averaged over several concentrations, from the calculated 50% response value for U46619 aggregation in the presence and absence of test compound; and […]

Q: Which results are given for CC(C)[C@@H]1OC[C@H](C/C=C\CCc2nn[nH]n2)[C@H](c2ccccc2O)O1 (relative stereo) [Example 5, 5-[3(Z)-5-([2,4,5-cis]-4-o-hydroxyphenyl-2-isopropyl-1,3-dioxan-5-yl)pentenyl]-1(H)-tetrazole]?
A: pA2 (rabbit aortal strip): 7.32; dose ratio [1]: 25; Kb [2]: 0.0456 µM
